Key:
[1] = test system: Cryptococcus neoformans ATCC 90113; assay: Antimicrobial microdilution assay against Cryptococcus neoformans (modified CLSI/NCCLS, optical density); format: cell-based; conditions: for X more potent than Amphotericin B: C. neoformans, ratio of molar IC50 to Amphotericin B; for C. neoformans IC50 / IC50: in vitro, C. neoformans ATCC 90113; for IC50: read-out: C. neoformans IC50 (mol/L)
In short: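 Fungicidal endpoint taken by subculturing 5 μL from each clear well onto agar, MFC being the lowest concentration with no regrowth. Duplicate wells of serially diluted compound (20% DMSO/saline) in RPMI pH 6.0, read at 630 nm pre- and post-incubation, under modified CLSI methods. IC50 means 50% growth inhibition against controls.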

[2] = test system: L. donovani promastigotes; assay: Antileishmanial Alamar Blue assay on promastigotes; format: cell-based, Leishmania donovani; conditions: for X more potent than Pentamidine: L. donovani, ratio of molar IC50 to Pentamidine; for L. donovani IC50 / IC50: promastigotes, 48 hours, Alamar Blue; for IC50: read-out: L. donavani IC50
Experimental: Methods: The compounds were screened in vitro against the promastigote forms of the leishmania parasites employing the Alamar Blue assay as discussed below.
Antileishmanial activity of the compounds was tested in vitro against a culture of L. donovani promastigotes, grown in RPMI 1640 medium supplemented with 10% fetal calf serum (FCS, Gibco Chem. Co., Grand Island, NY) at 26° C. A 3-day-old culture was diluted to 5×10^5 promastigotes/mL. Drug dilutions (50-3.1 μg/mL) were prepared directly in cell suspension in 96-well plates. Plates were incubated at 26° C. for 48 hours, and growth of leishmania promastigotes was determined by Alamar Blue assay. Standard fluorescence was measured on a FLUOstar® Galaxy plate reader (BMG Lab Technologies, Ortenberg, Germany) at an excitation wavelength of 544 nm and emission wavelength of 590 nm. Pentamidine and amphotericin B were used as the standard antileishmanial agents. Percent growth was calculated and plotted versus test concentration for computing the IC50 values.

[3] = test system: Staphylococcus aureus ATCC 29213; assay: Antibacterial broth dilution assay against S. aureus (modified CLSI); format: cell-based; conditions: for S. aureus IC50 / IC50: in vitro; for IC50: converted with molecular weight; for X more potent than ciprofloxacen: molar IC50 ratio versus ciprofloxacen
Experimental: (§1) General Experimental Procedures. All organisms were obtained from the American Type Culture Collection (Manassas, VA) and include the fungi Candida albicans ATCC 90028, C. glabrata ATCC 90030, C. krusei ATCC 6258, and Cryptococcus neoformans ATCC 90113, and the bacteria Staphylococcus aureus ATCC 29213 and methicillin-resistant S. aureus ATCC 33591 (MRS). All organisms were tested using modified versions of the CLSI (formerly NCCLS) methods. For all organisms, optical density was used to monitor growth (NCCLS, Reference Method for Broth Dilution Antifungal Susceptibility Testing of Yeasts; Approved Standard M27-A2. National Committee on Clinical Laboratory Standards, 2002 22 (15); and NCCLS, Methods for Dilution Antimicrobial Susceptibility Tests for Bacteria that Grow Aerobically; Approved Standard, Seventh Edition M7-A7. National Committee on Clinical Laboratory Standards, 2006. 26(2)).
(§2) Samples (dissolved in DMSO) were serially-diluted in 20% DMSO/saline and transferred (10 μL) in duplicate to 96 well flat bottom microplates. Inocula were prepared by correcting the OD630 of microbe suspensions in incubation broth [RPMI 1640/0.2% dextrose/0.03% glutamine/MOPS @ pH 6.0 (Cellgro) for Candida spp., Sabouraud Dextrose for C. neoformans, and cation-adjusted Mueller-Hinton (Difco) @ pH 7.3 for Staphylococcus spp. to afford an assay volume of […] and final target inocula of: Candida spp. and C. neoformans: 1.5×10^3, and Staphylococcus spp.: 5.0×10^5 CFU/ml. Final sample test concentrations were 1/100th the DMSO stock concentration. […] All organisms were read at either 530 nm using the Biotek Powerwave XS plate reader (Bio-Tek Instruments, Vermont) prior to and after incubation: Candida spp. at 35° C. for 46-50 h, Staphylococcus spp. at 35° C. for 16-20 h, and C. neoformans at 35° C. for 70-74 h. IC50s (concentrations that afford 50% inhibition relative to controls) were calculated using XLfit 4.2 software (IDBS, Alameda, CA) using fit model 201. The MIC is defined as the lowest test concentration that allows no detectable growth. Minimum fungicidal or bactericidal concentrations were determined by removing 5 μl from each clear (or blue) well, transferring to fresh media, and incubating as previously mentioned. The MFC/MBC is defined as the lowest test concentration that kills the organism (allows no growth).
(§3) Primary Analysis. Samples were tested in duplicate at one test concentration (50 μg/mL), and percent inhibitions were calculated relative to blank and growth controls. Samples showing 50% inhibition in at least one test organism were selected for dose response (Secondary) studies.
(§4) Secondary Analysis. Extracts from the Primary Assay, and first-run pure compounds and column fractions were tested in duplicate at 3 test concentrations (5-fold dilutions). Samples dissolved to 20 mg/mL in DMSO were tested at 200, 40, and 8 μg/mL. Samples dissolved to 2 mg/mL in DMSO were tested at 20, 4, and 0.8 μg/mL.

[4] = test system: C. glabrata ATCC 90030; assay: Antifungal broth dilution assay against C. glabrata (modified CLSI); format: cell-based, Candida glabrata; conditions: for C. glabrata IC50 / IC50: in vitro; for IC50: converted with molecular weight; for X more potent than Amphotericin B: molar IC50 ratio versus amphotericin B
Experimental: as §1, §2, §3, §4

Compound	X more potent than Amphotericin B [1]	C. neoformans IC50 [1] [µg/mL]	IC50 [1] [µM]	X more potent than Pentamidine [2]	L. donovani IC50 [2] [µg/mL]	IC50 [2] [µM]	S. aureus IC50 [3] [µg/mL]	IC50 [3] [µM]	X more potent than ciprofloxacen [3]	C. glabrata IC50 [4] [µg/mL]	IC50 [4] [µM]	X more potent than Amphotericin B [4]
Clc1cc(CN2CCN3CCN(CCN(Cc4ccc(CN5CCN6CCN(CC5)CCN(Cc5cc(Cl)nc(Cl)c5)CC6)cc4)CC3)CC2)cc(Cl)n1 [PW111A, p-dcp2-CB-cyclens]	4.88	0.040	0.0488	0.34	12.89	15.7	5.530	6.75	0.04	–	–	–
C1CNCCN2CCCNCCN(C1)CCC2.CC(=O)[O-].F[P-](F)(F)(F)(F)F.F[P-](F)(F)(F)(F)F.O.[Co+2].[NH4+] [SLK38B, [Co(H2PBCyclam)(OAc)]PF6•NH4PF6•H2O]	0.03	6.230	9.1	–	–	–	–	–	–	0.375	0.548	2.59
CC(=O)[O-].F[P-](F)(F)(F)(F)F.O.[Co+2].c1ccc(CN2CCCNCCN(Cc3ccccc3)CCCNCC2)cc1 [BME07, [Co(Bn2Cyclam)(OAc)PF6•H2O]	0.02	6.980	10.6	–	–	–	–	–	–	0.597	0.903	1.57
CN1CCN2CCN(CC1)CCN(Cc1ccccn1)CC2 [KRW32, Me1Pic1-CB-cyclen]	0.01	5.490	18.1	–	–	–	–	–	–	14.360	47.3	0.03
[p-(DCP-BMBCyclams)]Br4 [SLK26]	–	–	–	0.43	14.76	12.4	–	–	–	5.705	4.78	0.30
CC(=O)[O-].CC(=O)[O-].CN1CCCN2CCN(CCCN(Cc3ccc(CN4CCCN5CCN(C)CCCN(CC5)CC4)cc3)CC2)CC1.F[P-](F)(F)(F)(F)F.F[P-](F)(F)(F)(F)F.[Zn+2].[Zn+2] [KS34, [Zn2(p-CB-cyclams)(OAc)2](PF6)2]	0.41	0.650	–	0.25	23.49	–	–	–	–	15.760	–	0.10
[Cu2(p-CB-cyclam-cyclen)(OAc)2][PF6]2 [CMB029]	0.32	≤ 0.800	0.734	–	–	–	–	–	–	4.190	3.84	0.37
[Ni2(p-CB-cyclam-cyclen)(OAc)2][PF6]2 [CMB028]	0.19	1.330	1.23	0.19	30.69	28.4	–	–	–	4.490	4.16	0.34
CC(=O)[O-].CC(=O)[O-].CC(=O)[O-].CN1CCCN2CCN(CCCN(Cc3cc(CN4CCCN5CCN(C)CCCN(CC5)CC4)cc(CN4CCCN5CCN(C)CCCN(CC5)CC4)c3)CC2)CC1.F[P-](F)(F)(F)(F)F.F[P-](F)(F)(F)(F)F.F[P-](F)(F)(F)(F)F.[Cu+2].[Cu+2].[Cu+2] [BNS25, [Cu3(tris-CB-Cyclams)(OAc)3][PF6]3]	0.20	1.950	1.19	–	–	–	–	–	–	5.420	3.31	0.43
[Co2(m-SB-cyclam-cyclen)(OAc)2][PF6]4•H2O [CMB032]	0.41	≤ 0.800	0.588	–	–	–	–	–	–	1.310	0.963	1.47
[Co2(p-SB-cyclam-cyclen)(OAc)2][PF6]2 [CMB016A]	0.16	1.570	1.49	0.17	33.81	32.1	–	–	–	1.100	1.04	1.36
[Ni2(p-CB-Homocyclens)(OAc)2][PF6]2 [TJH378A]	0.03	7.540	6.98	–	–	–	–	–	–	5.150	4.77	0.30
[Co3(tris-CB-Cyclams)(OAc)1.51][PF6]4.5 [BNS24]	0.52	≤ 0.800	0.456	–	–	–	–	–	–	1.490	0.85	1.67
O.[Cl][Fe-2]([Cl])([Cl])[Cl].[Fe+2].c1ccc(CN2CCCN3CCCN(CCCN(Cc4ccccc4)CC3)CC2)cc1 [BME09, [Fe(Bn2PBCyclam)][FeCl4]•H2O]	0.15	1.070	1.55	0.26	14.10	20.4	5.130	7.41	0.04	–	–	–
C1CNCCN2CCCNCCN(C1)CCC2 [DJD27, H2PBCyclam]	0.03	1.830	7.61	–	–	–	–	–	–	3.380	14.1	0.10
CC(=O)[O-].CC(=O)[O-].[Cu+2].c1ccc(CN2CCCN3CCCN(CCCN(Cc4ccccc4)CC3)CC2)cc1 [DJD20, Cu(Bn2PBCyclam)(OAc)2]	0.05	3.130	5.2	0.22	14.65	24.3	6.880	11.4	0.02	–	–	–
[Zn2(m-cyclam-homocyclen)(OAc)2][PF6]2 [AW052B]	0.23	1.150	1.04	0.33	17.60	15.9	6.580	5.94	0.05	–	–	–
[m-(BMBCyclams)]Br2 [DJD05]	0.05	3.250	4.56	0.21	18.18	25.5	–	–	–	4.213	5.91	0.24

— patent US12139481B2, “Compositions comprising macrocycle derivatives incorporating bridged macrocycles and methods of producing and using same” (Southwestern Oklahoma State University, priority 2015, dated 2024)
